Laboratory results reported in patent publication EP4682146A1, “COMPOSITION INCLUDING NOVEL PYRIDOINDOLE DERIVATIVE COMPOUND AS ACTIVE INGREDIENT FOR PREVENTION OR TREATMENT OF NEURODEGENERATIVE DISEASES” (Neurotarge Co., Ltd., priority 2023, dated 2024).

biological target: T1, Tau-Synaptogyrin3 interaction (Homo sapiens, UniProt O43761+P10636); assay: Cell-based split luciferase (NanoBit) protein complementary assay for Tau-Synaptogyrin3 interaction in stable cell line HEK293T-TK252-1E2; details: HEK293T-TK252-1E2 cells, 48 hrs compound treatment, L/F value (luciferase activity/fluorescent intensity) compared to DMSO control
T1 construct: expressed in transfected cells
Procedure: Live cell luciferase assay: Live cell luciferase activity was measured using NanoGlo® Live Cell Assay System (Cat# N2012. Promega, WI, USA), according to manufacturer's instruction. All microplate-based measurement was performed with BioTek Synergy H1 (Agilent. CA, USA).
For producing HEK293T-TK252 stable cell line for screening, BglII-linearized pTK252 was transfected to HEK293T cells. After 24 hrs transfection, the transfected cells were cultured in the culture media containing 1 µg/ml puromycin (10 mM in DMSO, Cat# J61278/ Alfa Aesar. ThermoFisher Korea, Seoul, Korea) for 9 days. Regular media change was performed in every 3 days with fresh puromycin of indicating concentration during the whole selection period. The selected cells were trypsinized and diluted to 5 cells/ml and seeded to 4x 96 well cell culture plates (100 µl/well), and cultured with the cell culture media containing 1 µg/ml puromycin for 11 days. 18 wells that contained only GFP-positive cells were selected for expansion, and cultured with the cell culture media containing 0.1-0.2 µg/ml puromycin for 14 days. 10 clones were discarded during the expansion due to emerging of non-GFP cells, and 8 clones were validated. The selected clone (1E2) was cultured with the cell culture media containing 0.5 µg/ml puromycin for further experiments.
3 µmol of 1,728 compounds were purchased from Otava Chemicals MB (Vilniaus, Lithuania), dissolved into 300 µl DMSO (10 mM) and stored at -80°C. 4x10^4 HEK293T-TK252-1E2 cells were seeded with 100 µl of the cell culture media into 96 white well cell culture plates (Cat# 30196. SPL, Seoul, Korea), 48 hrs prior to compound treatment. For 10 µM compound treatment, 10 mM compound stock was diluted to 50 µM with the cell culture media, and 25 µl of the diluted compound was added to the designated wells of the 96 well plates. For dose-response experiments, the amount of compounds for dilution was adjusted to fit the volume indicated above. After 48 hrs compound treatment, the cells were washed once with OptiMEM and live cell luciferase activity, fluorescent intensity and fluorescence area scan was measured.
1,728 compounds were treated at 10 µM to HEK293T-TK252-1E2 cells and incubated for 48 hrs. […] Single wash step with culture media without FBS was included before measurement to discard dead cells and to remove FBS that affects luciferase assay. […] Fluorescent intensity was taken for normalization, which is expected to be proportion to the cell number at the measuring point. L/F value which is luciferase activity normalized with fluorescent intensity (L/F = Luciferase activity/ Fluorescent intensity) was calculated for all measurements and compared to L/F value of DMSO controls to calculated the size of inhibitory effect. […] Fluorescence area scan (FA) performed right after luciferase activity and fluorescent intensity measurement, to validate total remaining fluorescent cells in a well as a proxy to the cellular toxicity. FA value was in proportion to WST assay results (data not shown), and average CV of triplicates of all measurements was 0.04.
61 compounds were further tested for dose-response profile, based on inhibitory effect that was measured by L/F value (<60%) and FA-based cell viability (>90%) at 10 µM compared to DMSO control. 10 compounds were considered as hit compounds through three times of reproduction.

T1 sequence (P10636 1-441 isoform P10636-8): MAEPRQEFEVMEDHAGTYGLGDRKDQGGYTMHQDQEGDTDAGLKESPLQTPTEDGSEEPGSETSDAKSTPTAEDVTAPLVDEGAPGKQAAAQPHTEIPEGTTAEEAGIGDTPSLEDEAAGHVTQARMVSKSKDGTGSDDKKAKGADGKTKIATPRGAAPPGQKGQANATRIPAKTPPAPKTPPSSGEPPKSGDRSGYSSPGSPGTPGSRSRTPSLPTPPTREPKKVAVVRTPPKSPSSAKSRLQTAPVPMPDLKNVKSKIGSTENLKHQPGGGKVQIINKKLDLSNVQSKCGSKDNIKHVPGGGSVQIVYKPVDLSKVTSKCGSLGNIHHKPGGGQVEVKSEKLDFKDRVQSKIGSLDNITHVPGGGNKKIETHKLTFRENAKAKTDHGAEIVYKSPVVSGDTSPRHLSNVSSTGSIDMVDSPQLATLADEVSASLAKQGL
T1 sequence (O43761 whole entry): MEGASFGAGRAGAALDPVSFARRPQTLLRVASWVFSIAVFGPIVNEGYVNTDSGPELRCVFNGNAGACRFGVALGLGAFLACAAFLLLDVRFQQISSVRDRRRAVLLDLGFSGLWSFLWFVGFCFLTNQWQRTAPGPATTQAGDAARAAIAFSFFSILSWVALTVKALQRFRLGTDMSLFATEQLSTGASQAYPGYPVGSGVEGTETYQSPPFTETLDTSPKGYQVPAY

IC50 [µM] | SMILES
3 to 12 | O=C(c1cccnc1)N1CCc2[nH]c3cc(-c4ccccc4)ccc3c2C1 [Formula 35, (7-phenyl-1,3,4,5-tetrahydro-2H-pyrido[4,3-b]indol-2-yl)(pyridin-3-yl)methanone]
3 to 12 | Cc1ccc(-c2ccc3[nH]c4c(c3c2)CN(C(=O)C2CCCCC2)CC4)cc1 [Formula 36, Cyclohexyl(8-(p-tolyl)-1,3,4,5-tetrahydro-2H-pyrido[4,3-b]indol-2-yl)methanone]
< 3 | Cc1ccc(C(=O)N2CCc3[nH]c4ccc(-c5ccc(C)cc5)cc4c3C2)cc1 [Formula 37, p-Tolyl(8-(p-Tolyl)-1,3,4,5-tetrahydro-2H-pyrido[4,3-b]indol-2-yl)methanone]
12 to 25 | Cc1ccc(-c2ccc3[nH]c4c(c3c2)CN(C(=O)c2cccc(C)c2)CC4)cc1 [Formula 38, m-Tolyl(8-(p-Tolyl)-1,3,4,5-tetrahydro-2H-pyrido[4,3-b]indol-2-yl)methanone]
3 to 12 | COc1ccc(C(=O)N2CCc3[nH]c4ccc(-c5ccc(C)cc5)cc4c3C2)cc1 [Formula 39, (4-methoxyphenyl)(8-(p-tolyl)-1,3,4,5-tetrahydro-2H-pyrido[4,3-b]indol-2-yl)methanone]
< 3 | Cc1ccc(-c2ccc3[nH]c4c(c3c2)CN(C(=O)c2ccc(C)nc2)CC4)cc1 [Formula 40, (6-methylpyridin-3-yl)(8-(p-tolyl)-1,3,4,5-tetrahydro-2H-pyrido[4,3-b]indol-2-yl)methanone]
3 to 12 | Cc1ccc(-c2ccc3[nH]c4c(c3c2)CN(C(=O)c2ccnc(C)c2)CC4)cc1 [Formula 41, (2-methylpyridin-4-yl)(8-(p-tolyl)-1,3,4,5-tetrahydro-2H-pyrido[4,3-b]indol-2-yl)methanone]
12 to 25 | O=C(c1ccccc1)N1CCc2[nH]c3ccc(-c4cccnc4)cc3c2C1 [Formula 42, Phenyl(8-(pyridin-3-yl)-1,3,4,5-tetrahydro-2H-pyrido[4,3-b]indol-2-yl)methanone]
3 to 12 | Cc1ccc(-c2ccc3c(c2)c2c(n3C)CCN(C(=O)c3ccccc3)C2)cc1 [Formula 43, (5-methyl-8-(p-tolyl)-1,3,4,5-tetrahydro-2H-pyrido[4,3-b]indol-2-yl)(phenyl)methanone]
< 3 | Cc1ccc(-c2ccc3c(c2)c2c(n3C)CCN(C(=O)c3cccnc3)C2)cc1 [Formula 44, (5-methyl-8-(p-tolyl)-1,3,4,5-tetrahydro-2H-pyrido[4,3-b]indol-2-yl)(pyridin-3-yl)methanone]
3 to 12 | CCn1c2c(c3cc(-c4ccc(C)cc4)ccc31)CN(C(=O)c1ccccc1)CC2 [Formula 45, (5-ethyl-8-(p-tolyl)-1,3,4,5-tetrahydro-2H-pyrido[4,3-b]indol-2-yl)(phenyl)methanone]
3 to 12 | CCn1c2c(c3cc(-c4ccc(C)cc4)ccc31)CN(C(=O)c1cccnc1)CC2 [Formula 46, (5-ethyl-8-(p-tolyl)-1,3,4,5-tetrahydro-2H-pyrido[4,3-b]indol-2-yl)(pyridin-3-yl)methanone]
3 to 12 | Cc1ccc(-c2ccc3[nH]c4c(c3c2)CN(C(=O)c2ccccc2)CC4)cn1 [Formula 47, (8-(6-methylpyridin-3-yl)-1,3,4,5-tetrahydro-2H-pyrido[4,3-b]indol-2-yl)(phenyl)methanone]
12 to 25 | Cc1ccc(-c2ccc3[nH]c4c(c3c2)CN(C(=O)c2cccnc2)CC4)cn1 [Formula 48, (8-(6-methylpyridin-3-yl)-1,3,4,5-tetrahydro-2H-pyrido[4,3-b]indol-2-yl)(pyridin-3-yl)methanone]
12 to 25 | Cc1ccc(C(=O)N2CCc3[nH]c4ccc(-c5ccc(C)nc5)cc4c3C2)cn1 [Formula 49, (6-methylpyridin-3-yl)(8-(6-methylpyridin-3-yl)-1,3,4,5-tetrahydro-2H-pyrido[4,3-b]indol-2-yl)methanone]
< 3 | N#Cc1ccc(-c2ccc3[nH]c4c(c3c2)CN(C(=O)c2ccccc2)CC4)cc1 [Formula 50]
3 to 12 | N#Cc1ccc(-c2ccc3[nH]c4c(c3c2)CN(C(=O)c2cccnc2)CC4)cc1 [Formula 51]
< 3 | Cc1ccc(C(=O)N2CCc3[nH]c4ccc(-c5ccc(C#N)cc5)cc4c3C2)cc1 [Formula 52]

IC50 [µM] | SMILES
3 to 12 | Cc1cccc(C(=O)N2CCc3[nH]c4ccc(-c5ccc(C#N)cc5)cc4c3C2)c1 [Formula 53]
3 to 12 | Cc1ccc(C(=O)N2CCc3[nH]c4ccc(-c5ccc(C#N)cc5)cc4c3C2)cn1 [Formula 54]
12 to 25 | N#Cc1ccc(-c2ccc3[nH]c4c(c3c2)CN(C(=O)c2cccc(C#N)c2)CC4)cc1 [Formula 55]
3 to 12 | Cc1ccc(C(=O)N2CCc3[nH]c4ccc(-c5cccc(C#N)c5)cc4c3C2)cc1 [Formula 56, 3-(2-(4-Methylbenzoyl)-2,3,4,5-tetrahydro-1H-pyrido[4,3-b]indol-8-yl)benzonitrile]
3 to 12 | Cc1ccc(C(=O)N2CCc3[nH]c4ccc(-c5cccc(C#N)c5)cc4c3C2)cn1 [Formula 57, 3-(2-(6-Methylnicotinoyl)-2,3,4,5-tetrahydro-1H-pyrido[4,3-b]indol-8-yl)benzonitrile]
3 to 12 | N#Cc1cccc(-c2ccc3[nH]c4c(c3c2)CN(C(=O)c2ccccc2)CC4)c1 [Formula 58, 3-(2-benzoyl-2,3,4,5-tetrahydro-1H-pyrido[4,3-b]indol-8-yl)benzonitrile]
3 to 12 | Cc1ccc(C(=O)N2CCc3[nH]c4ccc(-c5ccccc5C#N)cc4c3C2)cc1 [Formula 59, 2-(2-(4-Methylbenzoyl)-2,3,4,5-tetrahydro-1H-pyrido[4,3-b]indol-8-yl)benzonitrile]
3 to 12 | Cc1ccc(C(=O)N2CCc3[nH]c4ccc(-c5ccccc5C#N)cc4c3C2)cn1 [Formula 60, 2-(2-(6-Methylnicotinoyl)-2,3,4,5-tetrahydro-1H-pyrido[4,3-b]indol-8-yl)benzonitrile]
3 to 12 | N#Cc1ccccc1-c1ccc2[nH]c3c(c2c1)CN(C(=O)c1ccccc1)CC3 [Formula 61, 2-(2-benzoyl-2,3,4,5-tetrahydro-1H-pyrido[4,3-b]indol-8-yl)benzonitrile]
3 to 12 | COc1ccc(-c2ccc3[nH]c4c(c3c2)CN(C(=O)c2ccccc2)CC4)cc1 [Formula 62, (8-(4-Methoxyphenyl)-1,3,4,5-tetrahydro-2H-pyrido[4,3-b]indol-2-yl)(phenyl)methanone]
< 3 | COc1ccc(-c2ccc3[nH]c4c(c3c2)CN(C(=O)c2cccnc2)CC4)cc1 [Formula 63, (8-(4-Methoxyphenyl)-1,3,4,5-tetrahydro-2H-pyrido[4,3-b]indol-2-yl)(pyridin-3-yl)methanone]
< 3 | O=C(c1ccccc1)N1CCc2[nH]c3ccc(-c4ccc(F)cc4)cc3c2C1 [Formula 64, (8-(4-fluorophenyl)-1,3,4,5-tetrahydro-2H-pyrido[4,3-b]indol-2-yl)(phenyl)methanone]
< 3 | O=C(c1cccnc1)N1CCc2[nH]c3ccc(-c4ccc(F)cc4)cc3c2C1 [Formula 65, (8-(4-fluorophenyl)-1,3,4,5-tetrahydro-2H-pyrido[4,3-b]indol-2-yl)(pyridin-3-yl)methanone]
12 to 25 | O=C(c1ccccc1)N1CCc2[nH]c3ccc(-c4ccc(C5CCCCC5)cc4)cc3c2C1 [Formula 66, (8-(4-Cyclohexylphenyl)-1,3,4,5-tetrahydro-2H-pyrido[4,3-b]indol-2-yl)(phenyl)methanone]
3 to 12 | Cc1ccc(C(=O)N2CCc3[nH]c4ccc(-c5ccc(C6CCCCC6)cc5)cc4c3C2)cn1 [Formula 67, (8-(4-Cyclohexylphenyl)-1,3,4,5-tetrahydro-2H-pyrido[4,3-b]indol-2-yl)(6-methylpyridin-3-yl)methanone]
3 to 12 | Cc1ccc2[nH]c3c(c2c1)CN(C(=O)c1ccccc1)CC3 [Formula 68, (8-methyl-1,3,4,5-tetrahydro-2H-pyrido[4,3-b]indol-2-yl)(phenyl)methanone]
3 to 12 | Cc1ccc(-c2ccc3[nH]c4c(c3c2)CN(C(=O)c2ccc(N(C)C)cc2)CC4)cc1 [Formula 69, (4-(Dimethylamino)phenyl)(8-(p-tolyl)-1,3,4,5-tetrahydro-2H-pyrido[4,3-b]indol-2-yl)methanone]
